Assay results published in US6818445B2 (Synaptic Pharmaceutical Corporation, priority 1994, dated 2004).
“And” between values parts separate entries of the source, which are not always exact repeats. Equal values may be shown once. Where a name gives a salt, the structure may show the parent alone. Read-outs that look alike come from different tables or passages of the source.

What was measured:
[1] = system: food intake of 24 h food-deprived rats; experiment: Food intake in food-deprived rats; type: in vivo, rat; conditions: 30 mg/kg i.p. after 24 h food deprivation, percentage of intake compared to control rats
Experimental: At the end of the equilibration period, food is removed from the animals for 24 hours starting at 8:00 a.m. At the end of the fasting period compound or vehicle may be administered to the animals orally or by injection intraperitoneally or intravenously. After 10-60 min. food is returned to the animals and their food intake is monitored at various time periods during the following 24 hour period. The food intake of animals treated with test compound may be calculated as a percentage of the food intake of control animals (i.e., animals treated with vehicle). Alternatively, food intake for each group of animals subjected to a particular experimental condition may be expressed as the mean±S.E.M.
Therefore, the Y5 antagonists of Table 14 were administered by intraperitoneal injection at a dose of 30 mg/kg to conscious rats following a 24 h food deprivation. […] Measurements were performed two hours after administration of the test compound.

[2] = system: NPY-induced feeding behavior in satiated rats; experiment: NPY-induced food intake in satiated rats; type: in vivo, rat; conditions: for Food intake (g) mean ± S.E.M., NPY + compound: compound 10 mg/kg i.p., then 300 pmole NPY i.c.v., 4 hours after NPY
Experimental: The rats are individually housed in stainless steel cages and maintained on an 11:13 h light-dark cycle (lights off at 18:00 h) at a controlled temperature of 21-23° C. at all times. Water and food (NAFAG lab chow pellets NAFAG, Gossau, Switzerland) are available ad libidum.
The guide cannula is placed on the dura. Injection cannulas extend the guide cannulas −3.8 mm ventrally to the skull surface. Animals are allowed at least 4 days of recovery postoperatively before being used in the experiments. Cannula placement is checked postoperatively by testing all rats for their drinking response to a 50 ng intracerebroventricular (i.c.v.) injection of angiotensin II. Only rats which drink at least 2.5 ml of water within 30 min. after angiotensin II injection are used in the feeding studies.
All injections are made in the morning 2 hours after light onset. Peptides are injected in artificial cerebrospinal fluid (ACSF) in a volume of 5 μl.
Pellets are then removed from the cage subsequently at each selected time point and replaced with a new set of preweighed pellets. The food intake of animals treated with test compound may be calculated as a percentage of the food intake of control animals i.e., animals treated with vehicle. Alternatively, food intake for each group of animals subjected to a particular experimental condition may be expressed as the mean±S.E.M. Statistical analysis is performed by analysis of variance using the Student-Newman-Keuls test.
Food intake is reported as the mean±S.E.M. intake for a group of animals.

[3] = target: T1, human 5HT1F receptor (Homo sapiens, UniProt P30939); experiment: Binding to human 5HT1F receptor, [3H]serotonin
T1 sequence (P30939 1-366): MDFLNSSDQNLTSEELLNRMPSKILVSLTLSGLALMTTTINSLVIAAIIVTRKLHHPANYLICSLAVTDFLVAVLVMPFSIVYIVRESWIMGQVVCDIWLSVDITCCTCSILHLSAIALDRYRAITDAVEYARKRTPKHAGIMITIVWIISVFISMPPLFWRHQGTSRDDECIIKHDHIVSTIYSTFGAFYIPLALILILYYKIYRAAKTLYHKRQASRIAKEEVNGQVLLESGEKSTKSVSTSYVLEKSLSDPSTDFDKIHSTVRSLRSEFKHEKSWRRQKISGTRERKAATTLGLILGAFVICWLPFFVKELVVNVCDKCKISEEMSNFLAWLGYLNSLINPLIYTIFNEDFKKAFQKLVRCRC

[4] = target: human 5HT1E receptor (Homo sapiens, UniProt P28566); experiment: Binding to human 5HT1E receptor, [3H]serotonin
Chain of human 5HT1E receptor (P28566 whole entry): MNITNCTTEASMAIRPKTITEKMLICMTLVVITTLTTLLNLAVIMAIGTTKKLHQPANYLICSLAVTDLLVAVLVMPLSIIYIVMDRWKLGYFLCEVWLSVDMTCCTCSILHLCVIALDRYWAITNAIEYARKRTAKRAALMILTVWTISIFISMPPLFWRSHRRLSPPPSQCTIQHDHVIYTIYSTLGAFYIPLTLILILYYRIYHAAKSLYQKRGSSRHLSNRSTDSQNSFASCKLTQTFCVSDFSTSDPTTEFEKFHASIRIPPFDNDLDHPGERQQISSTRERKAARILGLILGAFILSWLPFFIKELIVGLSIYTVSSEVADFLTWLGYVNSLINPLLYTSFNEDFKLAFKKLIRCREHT

[5] = target: human Y4 receptor (Homo sapiens, UniProt P50391); type: binding; conditions: Table 14
Chain of human Y4 receptor (P50391 whole entry): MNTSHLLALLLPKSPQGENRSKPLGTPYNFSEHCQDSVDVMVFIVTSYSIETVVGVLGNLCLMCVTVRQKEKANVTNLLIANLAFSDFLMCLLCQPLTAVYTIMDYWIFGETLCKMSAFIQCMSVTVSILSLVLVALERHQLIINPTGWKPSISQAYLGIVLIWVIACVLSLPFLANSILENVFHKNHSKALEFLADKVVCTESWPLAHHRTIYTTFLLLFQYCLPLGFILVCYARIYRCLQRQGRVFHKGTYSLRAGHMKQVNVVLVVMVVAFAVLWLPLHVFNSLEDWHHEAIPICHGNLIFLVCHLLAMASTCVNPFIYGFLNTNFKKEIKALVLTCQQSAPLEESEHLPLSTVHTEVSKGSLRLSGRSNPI

[6] = target: T2, human Y2 receptor (Homo sapiens, UniProt P49146); type: binding; conditions: Table 14
T2 sequence (P49146 1-381): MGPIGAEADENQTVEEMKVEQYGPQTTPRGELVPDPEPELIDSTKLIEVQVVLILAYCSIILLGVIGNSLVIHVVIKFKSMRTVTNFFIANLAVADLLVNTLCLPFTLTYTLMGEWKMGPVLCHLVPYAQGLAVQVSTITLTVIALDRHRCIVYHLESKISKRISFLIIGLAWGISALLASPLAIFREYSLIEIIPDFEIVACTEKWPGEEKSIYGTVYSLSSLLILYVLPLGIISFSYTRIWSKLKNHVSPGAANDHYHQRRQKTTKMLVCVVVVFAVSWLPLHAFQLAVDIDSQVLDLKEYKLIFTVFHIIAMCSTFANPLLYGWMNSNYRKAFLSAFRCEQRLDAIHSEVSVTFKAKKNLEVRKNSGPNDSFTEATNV

[7] = target: T3, human Y1 receptor (Homo sapiens, UniProt P25929); conditions: read-out: Binding Affinity (Ki (nM) vs. ^125I-PYY) Human Receptor Y1; Table 14
T3 sequence (P25929 1-384): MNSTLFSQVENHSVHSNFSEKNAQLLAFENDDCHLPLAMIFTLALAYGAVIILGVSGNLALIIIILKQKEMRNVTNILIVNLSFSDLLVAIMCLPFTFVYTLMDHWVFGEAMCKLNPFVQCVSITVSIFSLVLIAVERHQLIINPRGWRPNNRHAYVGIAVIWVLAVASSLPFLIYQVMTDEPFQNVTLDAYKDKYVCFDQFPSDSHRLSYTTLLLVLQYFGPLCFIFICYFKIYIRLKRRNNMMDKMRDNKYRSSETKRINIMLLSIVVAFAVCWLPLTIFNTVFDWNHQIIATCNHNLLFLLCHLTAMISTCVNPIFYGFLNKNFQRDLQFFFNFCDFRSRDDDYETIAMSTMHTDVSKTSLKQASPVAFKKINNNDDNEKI

[8] = target: human 5HT1Dβ receptor (Homo sapiens, UniProt P28222); experiment: Binding to human 5HT1Dβ receptor, [3H]serotonin; conditions: cloned human receptor; read-out: Receptor (pKi) 5HT1Dβ (converted)
Chain of human 5HT1Dβ receptor (P28222 whole entry): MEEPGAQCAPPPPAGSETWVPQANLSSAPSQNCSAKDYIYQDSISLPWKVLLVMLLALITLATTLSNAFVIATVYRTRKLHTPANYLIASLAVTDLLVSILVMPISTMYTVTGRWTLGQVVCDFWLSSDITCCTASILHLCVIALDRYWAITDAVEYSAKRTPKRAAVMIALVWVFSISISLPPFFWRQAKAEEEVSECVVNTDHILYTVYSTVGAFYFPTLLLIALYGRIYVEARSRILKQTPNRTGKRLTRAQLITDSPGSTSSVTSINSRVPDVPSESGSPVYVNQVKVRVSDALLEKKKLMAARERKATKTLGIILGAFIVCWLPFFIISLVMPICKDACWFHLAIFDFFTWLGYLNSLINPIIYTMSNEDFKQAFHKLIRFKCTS

[9] = target: human 5HT1Dα receptor (Homo sapiens, UniProt P28221); experiment: Binding to human 5HT1Dα receptor, [3H]serotonin
Chain of human 5HT1Dα receptor (P28221 whole entry): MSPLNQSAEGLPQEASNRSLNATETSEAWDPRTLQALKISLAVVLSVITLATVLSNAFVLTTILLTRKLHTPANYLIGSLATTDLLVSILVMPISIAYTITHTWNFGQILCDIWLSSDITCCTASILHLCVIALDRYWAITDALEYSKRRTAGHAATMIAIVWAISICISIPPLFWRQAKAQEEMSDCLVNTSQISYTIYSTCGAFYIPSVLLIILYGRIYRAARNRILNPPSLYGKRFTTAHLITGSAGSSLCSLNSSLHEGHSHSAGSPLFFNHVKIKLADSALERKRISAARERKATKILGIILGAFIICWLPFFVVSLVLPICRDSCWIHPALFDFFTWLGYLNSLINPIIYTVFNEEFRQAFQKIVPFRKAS

[10] = target: T4, human α2C receptor (Homo sapiens, UniProt P18825); experiment: Binding to cloned human α2C adrenergic receptor, [3H]rauwolscine
T4 sequence (P18825 1-462): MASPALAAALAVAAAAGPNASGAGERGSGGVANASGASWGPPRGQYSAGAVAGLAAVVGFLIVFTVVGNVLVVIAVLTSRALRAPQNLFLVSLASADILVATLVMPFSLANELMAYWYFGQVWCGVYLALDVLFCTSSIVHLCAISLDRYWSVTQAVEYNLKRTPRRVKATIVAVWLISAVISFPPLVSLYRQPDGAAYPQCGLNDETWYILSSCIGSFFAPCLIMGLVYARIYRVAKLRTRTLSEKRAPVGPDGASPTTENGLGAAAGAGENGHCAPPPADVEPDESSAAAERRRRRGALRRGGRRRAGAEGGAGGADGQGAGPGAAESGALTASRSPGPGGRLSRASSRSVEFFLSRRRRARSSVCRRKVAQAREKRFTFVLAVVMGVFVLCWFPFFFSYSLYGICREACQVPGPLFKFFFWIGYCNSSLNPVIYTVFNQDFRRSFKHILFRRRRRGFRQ

[11] = read-out: Binding Affinity (Ki (nM) vs. ^125I-PYY) Human Receptor Y4
[12] = read-out: Binding Affinity (Ki (nM) vs. ^125I-PYY) Human Receptor Y2

Molecule: Cl.O=S(=O)(NC[C@H]1CC[C@H](CNCC2CCc3ccccc3C2)CC1)c1ccc2ccccc2c1 (some centres unmarked) [Compound 17]
- Two-hour food intake of food-deprived rats, Mean (%) [1]: 27%
- Food intake (g) mean ± S.E.M., NPY + compound [2]: 3.8 ± 0.4 g

Molecule: O=S(=O)(NC[C@H]1CC[C@H](CNC(CO)Cc2ccc(Cl)cc2)CC1)c1cccc2ccccc12 (some centres unmarked) [Compound 25]
- Two-hour food intake of food-deprived rats, Mean (%) [1]: 32%
- Ki [3]: ≥ 5.01 µM
- Ki [4]: ≥ 5.01 µM
- Ki [5]: 13100 nM
- Ki [6]: 851 nM

Molecule: NPY: neuropeptide Y, species not given (Table 1, cited text); in Table 15 300 pmole porcine NPY i.c.v. [reference compound]
- Food intake (g) mean ± S.E.M., NPY ([2]; 300 pmole NPY i.c.v. alone, cumulative intake 4 hours after NPY, one value per compound experiment): 7.4 ± 0.5 g and 6.8 ± 1.0 g and 5.8 ± 0.5 g and 4.9 ± 0.4 g

Molecule: Cl.Cl.O=[N+]([O-])c1ccccc1S(=O)(=O)NCC1CCC(CNCc2ccc3ccccc3n2)CC1 (centres unmarked) [Compound 26]
- Two-hour food intake of food-deprived rats, Mean (%) [1]: 73%
- Ki [7]: 23700 nM
- Ki [5, 11]: 19300 nM
- Ki [6, 12]: 58200 nM

Molecule: CC(=O)O[C@H]1CC[C@H](Nc2nc(Nc3ccccc3)c3ccccc3n2)CC1 [Compound 7, trans-2-(4-Acetoxy-cvclohexylamino)-4-phenylamino-quinazoline Hydrochloride]
- Ki [8]: ≥ 5.01 µM
- Ki [3]: ≥ 5.01 µM
- Ki [4]: ≥ 5.01 µM

Molecule: COc1ccc(Nc2nc(Nc3ccccc3)c3cccc(OC)c3n2)cc1.Cl [Compound 9, 8-Methoxy-2-(4-methoxy-phenylamino)-4-phenylamino-quinazoline Hydrochloride]
- Ki [8]: ≥ 5.01 µM
- Ki [9]: ≥ 5.01 µM
- Two-hour food intake of food-deprived rats, Mean (%) [1]: 40%
- Ki [3]: ≥ 5.01 µM
- Ki [4]: ≥ 5.01 µM

Molecule: Nc1nc(NCCCCCCNS(=O)(=O)c2cccc3ccccc23)nc2ccccc12 [Compound 2, Naphthalene-1-sulfonic Acid [6-(4-amino-quinazolin-2-ylamino)-hexyl]-amide]
- Two-hour food intake of food-deprived rats, Mean (%) [1]: 42%

Molecule: CNS(=O)(=O)Cc1ccc(Nc2nc(Nc3ccccc3)c3cc(OC)ccc3n2)cc1.Cl [Compound 10, N-Methyl-[4-(6-methoxy-4-phenylamino-quinazolin-2-ylamino)-phenyl]-methanesulfonamide Hydrochloride]
- Ki [8]: ≥ 5.01 µM
- Ki [9]: ≥ 5.01 µM
- Two-hour food intake of food-deprived rats, Mean (%) [1]: 74%
- Ki [3]: ≥ 5.01 µM
- Ki [4]: ≥ 5.01 µM

Molecule: Cl.O=S(=O)(NCC1CCC(CNCc2ccc3ccccc3c2)CC1)c1ccccc1C(F)(F)F (centres unmarked) [Compound 21]
- Two-hour food intake of food-deprived rats, Mean (%) [1]: 80%
- Ki [7]: 13000 nM
- Ki [5, 11]: 18500 nM
- Ki [6, 12]: 1610 nM

Molecule: CNS(=O)(=O)Cc1ccc(Nc2nc(Nc3ccccc3)c3ccccc3n2)cc1.Cl [Compound 11, N-Methyl-[4-(4-phenylamino-quinazolin-2-ylamino)-phenyl]-methanesulfonamide Hydrochloride]
- Ki [8]: ≥ 5.01 µM
- Ki [9]: ≥ 5.01 µM
- Two-hour food intake of food-deprived rats, Mean (%) [1]: 15%
- Ki [3]: ≥ 5.01 µM
- Ki [4]: ≥ 5.01 µM

Molecule: c1ccc(Nc2nc(Nc3ccc(N4CCCCC4)cc3)nc3ccccc23)cc1 [Compound 6, 2-[4-(Piperidin-1-yl)-phenylaminol-4-phenylamino-quinazoline Dihydrochloride]
- Ki [8]: ≥ 5.01 µM
- Ki [9]: ≥ 5.01 µM
- Two-hour food intake of food-deprived rats, Mean (%) [1]: 38%
- Ki [3]: ≥ 5.01 µM
- Receptor (pKi) α2c [10]: 6.35
- Ki [4]: ≥ 5.01 µM

Molecule: Cl.O=S(=O)(NCC1CCC(CNCc2cccc3ccccc23)CC1)c1ccccc1C(F)(F)F (centres unmarked) [Compound 23]
- Two-hour food intake of food-deprived rats, Mean (%) [1]: 58%
- Ki [7]: 14500 nM
- Ki [5, 11]: 21500 nM
- Ki [6, 12]: 617 nM

Molecule: Cl.c1ccc(Nc2nc(Nc3ccccc3)c3ccccc3n2)cc1 [Compound 1, 2,4-Diphenylamino-quinazoline Hydrochloride]
- Ki [8]: ≥ 5.01 µM
- Two-hour food intake of food-deprived rats, Mean (%) [1]: 34%
- Ki [3]: ≥ 5.01 µM
- Food intake (g) mean ± S.E.M., NPY + compound [2]: 4.6 ± 0.6 g
- Ki [4]: ≥ 5.01 µM

Molecule: Cl.Nc1nc(NC[C@H]2CC[C@H](CNS(=O)(=O)c3cccc4ccccc34)CC2)nc2ccccc12 [Compound 5, trans-Naphthalene-1-sulfonic Acid {4-[(4-amino-quinazolin-2-ylamino)-methyl]-cyclohexylmethyl}-amide Hydrochloride]
- Ki [3]: ≥ 5.01 µM
- Food intake (g) mean ± S.E.M., NPY + compound [2]: 4.1 ± 0.4 g
- Ki [4]: ≥ 5.01 µM
